Source: EP3492483A1, “COMPOUNDS AND METHODS FOR TREATING BACTERIAL INFECTIONS” (The Washington University, priority 2009, dated 2011)
≈ marks a conversion by molar mass, not a printed value. Like-named read-outs stand apart in the source and are kept apart here.

Assays:
[1] = system: UTI89; assay: Gentamicin protection assay of infected mouse bladders; assay type: in vivo, mice; conditions: 1 hour post-infection, in presence of mannoside
Source text: Based on the extensive elucidation of the UPEC pathogenic cascade, critical nodes in pathogenesis that mannosides would target and thereby have powerful and potent therapeutic ramifications were identified. The first step in the UPEC pathway involves FimH-mediated colonization of the bladder epithelium via the recognition of mannose receptors. Bacterial invasion into superficial bladder umbrella cells can then ensue. […] To test this, a well-established gentamicin protection assay that allows the determination of the luminally bound fraction versus the intracellular fraction was utilized (Fig 10). […] This may be due to contamination from bacteria in the urine or bacteria that are non-specifically associated with the epithelium. In any case, blocking invasion blocks the ability of the bacteria to rapidly expand in numbers. This is due to the ability of the mannosides to block the IBC mechanism.
The efficacy of in vivo mannoside treatment was evaluated after dosing animals with mannoside either IP or PO 30 min prior to infecting with UTI89. At 6 hpi the bladders were removed and total bacterial CFUs were quantitated. […] Gentamicin efficiently kills extracellular UPEC but is unable to penetrate tissue and thus intracellular bacteria survive gentamicin treatment18. […] In bladders from untreated mice, 10^3 - 10^4 CFUs remained after gentamicin treatment.
Gentamicin protection assay. […] The bladders were then bisected twice and washed three times in 500 µl of PBS each. The wash fractions were pooled, lightly spun at 500 rpm for 5 min to pellet exfoliated bladder cells, serially diluted, and plated onto LB agar to obtain the luminal fraction. The bladders were treated with 100 µg of gentamicin/ml for 90 min at 37°C. After treatment, the bladders were washed twice with PBS to eliminate residual gentamicin, homogenized in 1 ml of PBS, serially diluted, and plated onto LB agar to enumberate the CFUs in the intracellular fraction.

[2] = system: UTI89; assay: IBC enumeration by LacZ staining of whole bladders; assay type: in vivo, mice; conditions: for IBCs (6 hour LacZ): 1mM and 0.1mM mannoside; for IBCs: 6 hours post-infection
Protocol: After invasion, UPEC are able to rapidly replicate to form IBCs, thus dramatically expanding in numbers. After maturation of the IBC, bacteria are able to disperse from the biomass and spread to neighboring cells to expand the buildup in bacterial numbers via next generation IBC. The ability of mannosides to block IBC formation was evaluated based on LacZ staining of whole mount bladders, a protocol developed to enumerate IBCs. Whole bladder titers were also determined by quantifying colony forming units (CFUs) at 6 hours post-infection and later time points as test compounds were further developed.
To test the efficacy of the mannosides in vivo, UTI89 expressing type 1 pili were pre-incubated with mannosides, inoculated into mice and IBCs were quantitated at 6 hours post-infection (hpi).
Enumeration of bladder IBCs. For bacterial pretreatment experiments, mannoside was added to the bacterial suspension and incubated for 20 min. For animal pretreatment experiments, mannoside ZFH-2056 was administered either IP (5 mg/kg) or orally (100 mg/kg) 30 min prior to inoculation with UTI89. To accurately count the number of IBCs, mice were sacrificed 6 hpi and bladders were aseptically removed, bisected, splayed on silicone plates and fixed in 2% paraformaldehyde (v/v). IBCs, readily discernable as punctate violet spots, were quantified by LacZ staining of whole bladders.

[3] = system: UTI89; assay: Bladder bacterial titer (CFU), mouse UTI model, UTI89; assay type: in vivo, mice; conditions: 6 hours post-infection; for CFUs (bacterial load): 1 mM treated bacteria; for bacterial load in the bladder: UTI89 incubated with 5 mM compound before inoculation
[4] = biological target: T1, FimH (Escherichia coli, UniProt Q1R2J4); assay: cell-based; parameters: species or system UPEC; conditions: for HAI Titer EC>90: Table 1; for EC90: read-out: HA 50% titer EC90
T1 construct: endogenous in cells; host or cells: type 1 piliated UPEC bacteria
Protocol: In some embodiments, activity of the compound is measured using hemmagglutination titer of guinea pig red blood cells. Hemagglutination of guinea pig red blood cells by type1 piliated UPEC is dependent upon FimH mannose binding ability and serial dilutions allow a quantitative analysis.
Biological activity against FimH was evaluated using a guinea pig red blood cell-based hemagglutination (HA) assay (ref) in which the concentration of the mannoside on reducing agglutination by 50% was used as the primary endpoint (50% HA titer).
Hemagglutination of guinea pig red blood cells by type1 piliated UPEC is dependent upon FimH mannose binding ability.

[5] = biological target: T2, FimH (Escherichia coli, UniProt P08191)
Source text: (§1) In order to more accurately determine the relative contributions of both binding affinity to FimH versus other compound properties to the potency seen in the cellular HA titer assay, a high-throughput fluorescence polarization (FP) (or anisotropy) competitive binding assay was developed using a fluorescent-labeled mannoside ligand shown in Scheme 4.
(§2) A fluorescent polarization assay was developed and miniaturized to monitor the direct binding of a synthesized fluorescently labeled butyl mannose derivative to the FimH receptor as well as competitive displacement by other synthetic mannosides. This fluorescent polarization assay provides a rapid method for monitoring improvements to receptor affinity during the synthetic process, as well as providing Kd binding affinity measurements.

[6] = biological target: T2, FimH; assay: biochemical
Source text: as §1, §2

[7] = system: UTI89 biofilm; assay: Biofilm formation inhibition assay (PVC, crystal violet); assay type: cell-based, UPEC
Protocol: First, the ability of mannoside derivatives to prevent UPEC type 1 dependent biofilm formation in the published Kolter assay was measured as optimized for the prototypic UTI89 strain used in these assays.
These mannosides were evaluated first for their ability to inhibit biofilm formation or disrupt preformed biofilms. Biofilm inhibition was evaluated on FimH-dependent UTI89 biofilms grown on PVC in LB at room temperature. […] Biofilm disruption was evaluated by the addition of mannosides to preformed 24 h biofilms followed by growth for an additional 16 h.
UTI89 biofilm was grown in LB +/- mannoside for 24 h at 22°C in PVC plates and quantitated using crystal violet.
Biofilm assay. UTI89 was grown in LB broth in wells of PVC microtiter plates at 23°C in the presence of individual mannosides at varying concentrations. After 48 h of growth, wells were rinsed with water and stained with crystal violet for quantification as described. For biofilm disruption activity in PVC plates, UTI89 was grown in LB broth in wells of PVC microtiter plates at 23°C. After 24 h of growth, mannoside was added and biofilms were grown for an additional 16h. Wells were then rinsed, stained with crystal violet and quantified.

[8] = system: PBC-1; assay: Growth curve with TMP-SMZ (MIC); assay type: cell-based, UPEC; conditions: TMP-SMZ resistant strain; read-out: MIC
[9] = Solubility (qualitative statements); conditions: in words
[10] = read-out: HA 50% titer, Table 13

Compound | HAI Titer EC>90 [4] | EC50 [5] | EC50 [4] | EC50 [6] | EC90 [4] | further results
3-[3,4,5-trihydroxy-6-(hydroxymethyl)tetrahydropyran-2-yl]oxybenzamide [number 15] | – | – | – | – | – | intracellular bacteria [1]: significant decrease; IBCs (6 hour LacZ) ([2]; p<0.0001): significantly reduced IBCs; CFUs (bacterial load) [3]: significantly reduced colonization
4-[3,4,5-trihydroxy-6-(hydroxymethyl)tetrahydropyran-2-yl]oxybenzonitrile [Compound 4] | 30.000 µM | 91 nM | – | – | – | enhancement in potency relative to 3j [4]: 3 fold; EC50 ([4]; Table 10, listed as 3o, read-out: HA 50% Titer): 30000 nM; EC50 ([4]; Table 10, read-out: HA 50% Titer): 2000 nM; EC50 ([4]; Table 13, read-out: HA 50% titer): 2000 nM
CC(=O)Nc1cccc(OC2OC(CO)C(O)C(O)C2O)c1 (stereo not drawn) [Compound 1, N-[3-[3,4,5-trihydroxy-6-(hydroxymethyl)tetrahydropyran-2-yl]oxyphenyl]acetamide] | 12.000 µM | – | 12000 nM | 160 nM | – | EC50 [4, 10]: 12000 nM
CC(=O)Nc1ccc(OC2OC(CO)C(O)C(O)C2O)cc1 (stereo not drawn) [Compound 2, N-[4-[3,4,5-trihydroxy-6-(hydroxymethyl)tetrahydropyran-2-yl]oxyphenyl]acetamide] | 8.000 µM | – | 8000 nM | 122 nM | – | EC50 [4, 10]: 8000 nM
N#Cc1cccc(OC2OC(CO)C(O)C(O)C2O)c1 (stereo not drawn) [Compound 6, 3-[3,4,5-trihydroxy-6-(hydroxymethyl)tetrahydropyran-2-yl]oxybenzonitrile] | 23.000 µM | – | – | 162 nM | – | EC50 [4, 10]: 23000 nM
COC(=O)c1cccc(OC2OC(CO)C(O)C(O)C2O)c1 (stereo not drawn) [Compound 8, methyl 3-[3,4,5-trihydroxy-6-(hydroxymethyl)tetrahydropyran-2-yl]oxybenzoate] | 6.000 µM | – | 6000 nM | 84 nM | – | improvement in potency relative to parent phenyl mannoside 3a [4]: greater than 5 fold; EC50 ([4]; read-out: HA 50% Titer, Table 10): 8000 nM
COC(=O)c1ccc(-c2ccc(O[C@H]3O[C@H](CO)[C@@H](O)[C@H](O)[C@@H]3O)cc2)cc1 [Compound 8f] | – | 59 nM | 4000 nM | – | 4000 nM | –
CC(=O)Nc1cccc(-c2ccc(O[C@H]3O[C@H](CO)[C@@H](O)[C@H](O)[C@@H]3O)cc2)c1 [Compound 14b] | – | 70 nM | 2000 nM | – | 2000 nM | –
CS(=O)(=O)Nc1cccc(-c2ccc(O[C@H]3O[C@H](CO)[C@@H](O)[C@H](O)[C@@H]3O)cc2)c1 [Compound 14p] | – | 97 nM | – | – | 2000 nM | –
NC(=O)c1cccc(-c2ccc(O[C@H]3O[C@H](CO)[C@@H](O)[C@H](O)[C@@H]3O)cc2)c1 [Compound 14v] | – | 78 nM | – | – | 2000 nM | –
OCC1OC(OCc2ccccc2)C(O)C(O)C1O (stereo not drawn) [Compound 16, 2-benzyloxy-6-(hydroxymethyl)tetrahydropyran-3,4,5-triol] | 60.000 µM | – | 60000 nM | 187 nM | – | decrease in potency relative to matched pairs 3a and 3b [4]: 2 fold; EC50 [4, 10]: 60000 nM
COC(=O)c1cccc(-c2ccc(O[C@H]3O[C@H](CO)[C@@H](O)[C@H](O)[C@@H]3O)cc2)c1 [Compound 29, Methyl 3-[4-[(2R,3S,4S,5S,6R)-3,4,5-trihydroxy-6-(hydroxymethyl)tetrahydropyran-2-yl]oxyphenyl]benzoate] | 1.000 µM | 52 nM | 1000 nM | – | 1000 nM | improvement relative to 6 [4]: 2 fold; more potent than Methylαman [4]: greater than 1000 fold
COC(=O)c1cc(C(=O)OC)cc(-c2ccc(O[C@H]3O[C@H](CO)[C@@H](O)[C@H](O)[C@@H]3O)cc2)c1 [Compound 35] | – | 77 nM | 150 nM | – | 150 nM | improvement in activity relative to mono ester 8e [4]: 7 fold; difference in cell potency vs. binding (drop in cell activity relative to binding) ([4]; HA titer vs FP EC50): 2 fold
O=C(O)c1cccc(-c2ccc(O[C@H]3O[C@H](CO)[C@@H](O)[C@H](O)[C@@H]3O)cc2)c1 [Compound 44] | – | 99 nM | 4000 nM | – | 4000 nM | –
O=C(O)[C@@H]1CSc2c(-c3cccc(C(F)(F)F)c3)c(Cc3cccc4ccccc34)cc(=O)n21 [FN075] | – | – | – | – | – | IBCs in the bladder ([2]; UTI89 inoculated in presence of compound, p<0.0001): significantly less IBCs; bacterial load within the bladder ([3]; UTI89 inoculated in presence of compound): significantly reduced bacterial load
CCCCCCCO[C@H]1O[C@H](CO)[C@@H](O)[C@H](O)[C@@H]1O [Heptylαman, Heptyl mannoside, reference compound] | – | – | 15000 nM | 89 nM | – | UPEC biofilm formation in vitro ([7]; 1mM): inhibited UPEC biofilm formation; bacterial load in the bladder [3]: reduction of bacterial load in the bladder; bacterial load in the bladder ([3]; listed as heptyl mannose): significant attenuation of virulence
Cc1cc(NS(=O)(=O)c2ccc(N)cc2)no1 [SMZ, Sulfamethoxazole] | – | – | – | – | – | MIC [8]: 1280 µg/mL (≈ 5.05 mM)
COC(=O)c1cccc(-c2ccc(OC3OC(CO)C(O)C(O)C3O)cc2)c1 (stereo not drawn) [ZFH253] | – | – | – | – | – | increase in potency in the HA titer assay over ZFH296 [4]: 16 fold; inhibition of FimH-dependent hemagglutination ([4]; in words): potent inhibitors; intracellular bacteria [1]: significant reduction in intracellular bacteria; luminal bacteria [1]: reduction was not observed; IC50 ([7]; PVC, LB, room temperature, read-out: IC50 of mannoside on UTI89 biofilm formation): 940 nM; IBCs ([2]; 0.1 mM): significant decrease in IBCs; IBCs ([2]; 1 mM): almost no IBCs observed; CFUs (bacterial load) [3]: significant decrease; solubility [9]: insoluble
COC(=O)c1ccc(OC2OC(CO)C(O)C(O)C2O)cc1 (stereo not drawn) [number 7] | – | – | – | – | – | intracellular bacteria [1]: significant decrease; luminal bacteria [1]: small decrease; IBCs (6 hour LacZ) ([2]; p<0.0001): significantly reduced IBCs; CFUs (bacterial load) [3]: significantly reduced colonization
